From patent publication US9073926B2, “Heterocyclic compounds containing a pyrrolopyridine or benzimidazole core” (Boehringer Ingelheim International GmbH, priority 2009, dated 2015)

The molecules below were run against Human RSK2 (Homo sapiens (Human), UniProt P51812) (assay: Human RSK2 Assay (Kinase Glo Plus, residual ATP)). Conditions: 0.75 nM His-RSK2, 0.75 μM ATP, 1.0 μM S6 Kinase/RSK Substrate Peptide 1.
Type: biochemical
Procedure, shortened: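 His-RSK2 (0.75 nM) with 0.75 μM ATP and 1.0 μM S6 kinase/RSK substrate peptide in HEPES pH 7.5 buffer with Mg/Mn, 90 min at 28° C. Residual ATP read by Kinase Glo Plus luminescence; percent of control fitted to a 4-parameter logistic, IC50 taken as inflection point.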

Chain of Human RSK2 (P51812 whole entry): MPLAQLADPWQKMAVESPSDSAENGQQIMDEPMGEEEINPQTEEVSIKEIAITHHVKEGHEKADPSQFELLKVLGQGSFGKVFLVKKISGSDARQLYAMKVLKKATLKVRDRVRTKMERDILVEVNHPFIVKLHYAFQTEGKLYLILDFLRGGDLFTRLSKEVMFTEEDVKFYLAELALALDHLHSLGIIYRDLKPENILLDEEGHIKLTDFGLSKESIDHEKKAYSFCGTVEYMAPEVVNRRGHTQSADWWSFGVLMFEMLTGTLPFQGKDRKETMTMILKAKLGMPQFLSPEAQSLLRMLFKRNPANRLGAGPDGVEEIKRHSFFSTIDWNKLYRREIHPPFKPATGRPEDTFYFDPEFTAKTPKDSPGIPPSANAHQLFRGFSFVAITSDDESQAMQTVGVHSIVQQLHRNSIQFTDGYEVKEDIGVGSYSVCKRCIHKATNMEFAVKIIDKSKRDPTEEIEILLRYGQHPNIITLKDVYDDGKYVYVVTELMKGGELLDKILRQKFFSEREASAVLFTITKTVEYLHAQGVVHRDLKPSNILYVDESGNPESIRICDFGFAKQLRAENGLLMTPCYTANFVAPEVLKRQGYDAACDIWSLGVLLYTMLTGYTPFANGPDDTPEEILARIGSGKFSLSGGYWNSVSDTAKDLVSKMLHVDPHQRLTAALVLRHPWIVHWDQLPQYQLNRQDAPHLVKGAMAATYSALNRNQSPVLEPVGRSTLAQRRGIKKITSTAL

In order of rising IC50:
1. CC1CCNC(=O)c2cc3ccc(C(=O)Nc4cc(Cc5ccccc5)on4)nc3n21 (centres unmarked) [Example 94, N-(5-benzyl-1,2-oxazol-3-yl)-10-methyl-6-oxo-7,8,9,10-tetrahydro-6H-pyrido[3′,2′:4,5]pyrrolo[1,2-a][1,4]diazepine-2-carboxamide]  0.0033 µM
2. O=C(Nc1cc(Cc2ccccc2)no1)c1ccc2cc3n(c2n1)CCCNC3=O [Example 95, N-(3-benzyl-1,2-oxazol-5-yl)-6-oxo-7,8,9,10-tetrahydro-6H-pyrido[3′,2′:4,5]pyrrolo[1,2-a][1,4]diazepine-2-carboxamide]  0.0036 µM
3. C[C@@H]1CNC(=O)c2cc3ccc(C(=O)Nc4cc(Cc5ccccc5)on4)nc3n21 [Example 98, (9R)-N-(5-benzyl-1,2-oxazol-3-yl)-9-methyl-6-oxo-6,7,8,9-tetrahydropyrido[3′,2′:4,5]pyrrolo[1,2-a]pyrazine-2-carboxamide]  0.0039 µM
4. O=C(Nc1cc(-c2ccccc2)no1)c1ccc2cc3n(c2n1)CCCNC3=O [Example 81, 6-oxo-N-(3-phenyl-1,2-oxazol-5-yl)-7,8,9,10-tetrahydro-6H-pyrido[3′,2′:4,5]pyrrolo[1,2-a][1,4]diazepine-2-carboxamide]  0.0043 µM
5. Cc1cc(NC(=O)c2ccc3cc4n(c3n2)C(C)CCNC4=O)no1 (centres unmarked) [Example 82, 10-methyl-N-(5-methyl-1,2-oxazol-3-yl)-6-oxo-7,8,9,10-tetrahydro-6H-pyrido[3′,2′:4,5]pyrrolo[1,2-a][1,4]diazepine-2-carboxamide]  0.0052 µM
6. Cc1cc(NC(=O)c2ccc3cc4n(c3n2)[C@H](C)CNC4=O)no1 [Example 84, (9R)-9-methyl-N-(5-methyl-1,2-oxazol-3-yl)-6-oxo-6,7,8,9-tetrahydropyrido[3′,2′:4,5]pyrrolo[1,2-a]pyrazine-2-carboxamide]  0.0066 µM
7. CC1CCNC(=O)c2cc3ccc(C(=O)Nc4cc(Cc5ccccc5)no4)nc3n21 (centres unmarked) [Example 96, N-(3-benzyl-1,2-oxazol-5-yl)-10-methyl-6-oxo-7,8,9,10-tetrahydro-6H-pyrido[3′,2′:4,5]pyrrolo[1,2-a][1,4]diazepine-2-carboxamide]  0.013 µM
8. CCn1c(NC(=O)c2ccc3cc4n(c3n2)C(C)CCNC4=O)nc2ccccc21 (centres unmarked) [Example 69, N-(1-ethyl-1H-benzimidazol-2-yl)-10-methyl-6-oxo-7,8,9,10-tetrahydro-6H-pyrido[3′,2′:4,5]pyrrolo[1,2-a][1,4]diazepine-2-carboxamide]  0.015 µM
9. CC(C)(C)c1cc(NC(=O)c2ccc3cc4n(c3n2)CCCNC4=O)no1 [Example 79, N-(5-tert-butyl-1,2-oxazol-3-yl)-6-oxo-7,8,9,10-tetrahydro-6H-pyrido[3′,2′:4,5]pyrrolo[1,2-a][1,4]diazepine-2-carboxamide]  0.019 µM
10. Cc1cc(NC(=O)c2ccc3cc4n(c3n2)CCCNC4=O)no1 [Example 80, N-(5-methyl-1,2-oxazol-3-yl)-6-oxo-7,8,9,10-tetrahydro-6H-pyrido[3′,2′:4,5]pyrrolo[1,2-a][1,4]diazepine-2-carboxamide]  0.019 µM
11. CCn1c(NC(=O)c2ccc3cc4n(c3n2)[C@H](C)CNC4=O)nc2ccccc21 [Example 72, (9R)-N-(1-ethyl-1H-benzimidazol-2-yl)-9-methyl-6-oxo-6,7,8,9-tetrahydropyrido[3′,2′:4,5]pyrrolo[1,2-a]pyrazine-2-carboxamide]  0.0265 µM
12. CC1CCNC(=O)c2cc3ccc(C(=O)Nc4nc5ccccc5n4CCCN(C)C)nc3n21 (centres unmarked) [Example 70, N-{[3-(dimethylamino)propyl]-1H-benzimidazol-2-yl}-10-methyl-6-oxo-7,8,9,10-tetrahydro-6H-pyrido[3′,2′:4,5]pyrrolo[1,2-a][1,4]diazepine-2-carboxamide]  0.027 µM
13. CC1(C)CNC(=O)c2cc3ccc(C(=O)Nc4cc(C5CC5)on4)nc3n2C1 [Example 90, N-(5-cyclopropyl-1,2-oxazol-3-yl)-9,9-dimethyl-6-oxo-7,8,9,10-tetrahydro-6H-pyrido[3′,2′:4,5]pyrrolo[1,2-a][1,4]diazepine-2-carboxamide]  0.043 µM
14. C[C@@H]1CNC(=O)c2cc3ccc(C(=O)Nc4nc5ccccc5n4CCCN(C)C)nc3n21 [Example 76, (9R)-N-{1-[3-(dimethylamino)propyl]-1H-benzimidazol-2-yl}-9-methyl-6-oxo-6,7,8,9-tetrahydropyrido[3′,2′:4,5]pyrrolo[1,2-a]pyrazine-2-carboxamide]  0.054 µM
15. CCn1c(NC(=O)c2ccc3cc4n(c3n2)[C@@H](C)CNC4=O)nc2ccccc21 [Example 71, (9S)-N-(1-ethyl-1H-benzimidazol-2-yl)-9-methyl-6-oxo-6,7,8,9-tetrahydropyrido[3′,2′:4,5]pyrrolo[1,2-a]pyrazine-2-carboxamide]  0.0545 µM
16. CCc1cc(NC(=O)c2ccc3cc4n(c3n2)CC(C)(C)CNC4=O)no1 [Example 88, N-(5-ethyl-1,2-oxazol-3-yl)-9,9-dimethyl-6-oxo-7,8,9,10-tetrahydro-6H-pyrido[3′,2′:4,5]pyrrolo[1,2-a][1,4]diazepine-2-carboxamide]  0.109 µM
17. CC(C)c1cc(NC(=O)c2ccc3cc4n(c3n2)CC(C)(C)CNC4=O)no1 [Example 89, 9,9-dimethyl-6-oxo-N-[5-(propan-2-yl)-1,2-oxazol-3-yl]-7,8,9,10-tetrahydro-6H-pyrido[3′,2′:4,5]pyrrolo[1,2-a][1,4]diazepine-2-carboxamide]  0.125 µM
18. C[C@H]1CNC(=O)c2cc3ccc(C(=O)Nc4nc5ccccc5n4CCCN(C)C)nc3n21 [Example 75, (9S)-N-{1-[3-(dimethylamino)propyl]-1H-benzimidazol-2-yl}-9-methyl-6-oxo-6,7,8,9-tetrahydropyrido[3′,2′:4,5]pyrrolo[1,2-a]pyrazine-2-carboxamide]  0.265 µM
19. CC1(C)CNC(=O)c2cc3ccc(C(=O)Nc4cc(Cc5ccccc5)on4)nc3n2C1 [Example 93, N-(5-benzyl-1,2-oxazol-3-yl)-9,9-dimethyl-6-oxo-7,8,9,10-tetrahydro-6H-pyrido[3′,2′:4,5]pyrrolo[1,2-a][1,4]diazepine-2-carboxamide]  0.36 µM
20. Cc1cc(NC(=O)c2ccc3cc4n(c3n2)[C@@H](C)CNC4=O)no1 [Example 83, (9S)-9-methyl-N-(5-methyl-1,2-oxazol-3-yl)-6-oxo-6,7,8,9-tetrahydropyrido[3′,2′:4,5]pyrrolo[1,2-a]pyrazine-2-carboxamide]  0.38 µM
21. Cc1cc(NC(=O)c2ccc3cc4n(c3n2)CC(C)(C)CNC4=O)no1 [Example 91, 9,9-dimethyl-N-(5-methyl-1,2-oxazol-3-yl)-6-oxo-7,8,9,10-tetrahydro-6H-pyrido[3′,2′:4,5]pyrrolo[1,2-a][1,4]diazepine-2-carboxamide]  0.395 µM
22. C[C@H]1CNC(=O)c2cc3ccc(C(=O)Nc4cc(Cc5ccccc5)on4)nc3n21 [Example 97, (9S)-N-(5-benzyl-1,2-oxazol-3-yl)-9-methyl-6-oxo-6,7,8,9-tetrahydropyrido[3′,2′:4,5]pyrrolo[1,2-a]pyrazine-2-carboxamide]  0.49 µM
23. CC1(C)CNC(=O)c2cc3ccc(C(=O)Nc4cc(-c5ccccc5)on4)nc3n2C1 [Example 92, 9,9-dimethyl-6-oxo-N-(5-phenyl-1,2-oxazol-3-yl)-7,8,9,10-tetrahydro-6H-pyrido[3′,2′:4,5]pyrrolo[1,2-a][1,4]diazepine-2-carboxamide]  0.502 µM
